The values below come from US20230069963A1, “PYRAZOLO[1,5-A]PYRIMIDINE MACROCYCLIC COMPOUND” (priority 2018, published 2023).

For one series, the system named is D486N mutant strain. The conditions noted are these: D486N mutant vs wild strain; cited from earlier work.
The conditions of series [1]: amide bond, HATU, DMF.
For a further series, the system named is RSV ATCC VR-1540 (A2). Kind of series: microbe, parasite or virus in culture. The format is cell-based. As to conditions: human respiratory syncytial virus, HEp-2, 96 h; Hep2 cells, incubated for 4 days, CPE detected with XTT assay (absorbance 450 nm); read-out: EC50 (nmol/L) against RSV A2 strain. A general note: Formazan colour is commonly taken as a measure of viable cells.

The test system of series [2] is F protein D486N mutant strain of RSV A2 strain. The format is cell-based, respiratory syncytial virus (RSV). As to conditions: Hep2 cells, incubated for 4 days, CPE detected with XTT assay (absorbance 450 nm); read-out: EC50 (nmol/L) against F protein D486N mutant strain of RSV A2 strain.

Counter-ions that a name gives are not always drawn. Like-named read-outs stand apart in the source and are kept apart here.

With `Cc1cn2nc([C@@H]3CCCCN3C(=O)c3cc(Cl)ccc3NS(C)(=O)=O)cc2nc1N1CC[C@H](N)C1` [GS-5806], the “reduction of activity against the D486N mutant strain compared to the activity against the wild strain” value with D486N mutant strain was “approximately 1000 times”. In turn, `CN1CCNC(=O)COc2ccc(F)cc2C(=O)N2CCCC[C@H]2c2cc3nc(Cl)cc1n3n2` yielded a ring closure, yield of all isomers in series [1] (from CN(CCNC(=O)COc1ccc(F)cc1C(=O)O)c1cc(Cl)nc2cc([C@@H]3CCCCN3)nn12, 10.0 mM, 25.0 °C, 15.0 h) of 64.8%. For the compound `CN1CCNC(=O)COc2ccc(F)cc2C(=O)N2CCCCC2c2cc3nc(N4CCC(N)C4)cc1n3n2` [Example 1, (18aS)-13-[(3S)-3-aminopyrrolidin-1-yl]-2-fluoro-11-methyl-8,9,10,11,19,20,21,22-octahydro-18aH,24H-18,15-(metheno)pyrido[2,1-l]pyrimido[6,1-h][1,4,7,9,10,13]benzoxapentaazacyclohexadecine-7,24(6H)-dione], the EC50 in the series on RSV ATCC VR-1540 (A2) amounted to 2.07 nmol/L; in series [2], 3.17 nmol/L. The matching figures for `Cc1ccc2c(c1)C(=O)N1CCCCC1c1cc3nc(C4CC(O)C4)cc(n3n1)N(C)CCNC(=O)CO2` [Example 117, (18aS)-13-(trans-3-hydroxycyclobutyl)-2,11-dimethyl-8,9,10,11,19,20,21,22-octahydro-18aH,24H-18,15-(metheno)pyrido[2,1-l]pyrimido[6,1-h][1,4,7,9,10,13]benzoxapentaazacyclohexadecine-7,24(6H)-dione]: 0.773 nmol/L and 0.742 nmol/L. On to `CN1CCCCS(=O)(=O)NC(C)(c2ccccc2)C(=O)N2CCCC[C@H]2c2cc3nc(Cl)cc1n3n2` (stereo partly drawn), for which the ring closure, yield of all isomers in series [1] (from CN(CCCCS(=O)(=O)NC(C)(C(=O)O)c1ccccc1)c1cc(Cl)nc2cc([C@@H]3CCCCN3)nn12, 10.2 mM, 70.0 °C, 2.5 h) came out at 80.4%. Consider `Cc1ccc2c(c1)C(=O)N1CCCCC1c1cc3nc(N4CCC(N)C4)cc(n3n1)N(C)CCCCO2` [Example 244, (23aS)-18-[(3S)-3-aminopyrrolidin-1-yl]-8,16-dimethyl-1,3,4,13,14,15,16,23a-octahydro-2H, 6H,12H-23,20-(metheno)pyrido[2,1-k]pyrimido[6,1-g][1,6,8,9,12]benzoxatetraazacyclopentadecin-6-one hydrochloride], for which the EC50 with RSV ATCC VR-1540 (A2) was found to be 4.01 nmol/L; in series [2], 7.34 nmol/L. The matching figures for `[2H]C([2H])([2H])N1CCNC(=O)COc2ccc(Cl)cc2C(=O)N2CCCCC2c2cc3nc(C4CC(O)C4)cc1n3n2` [Example 115, (18aS)-2-chloro-13-(trans-3-hydroxycyclobutyl)-11-trideuteriomethyl-8,9,10,11,19,20,21,22-octahydro-18aH,24H-18,15-(metheno)pyrido[2,1-l]pyrimido[6,1-h][1,4,7,9,10,13]benzoxapentaazacyclohexadecine-7,24(6H)-dione]: 0.344 nmol/L and 0.777 nmol/L. The matching figures for `[2H]C([2H])([2H])c1ccc2c(c1)C(=O)N1CCCC[C@H]1c1cc3nc(C4CC4)cc(n3n1)N(C)CCNC(=O)CO2` [Example 100, (18aS)-13-cyclopropyl-11-methyl-2-trideuteriomethyl-8,9,10,11,19,20,21,22-octahydro-18aH,24H-18,15-(metheno)pyrido[2,1-l]pyrimido[6,1-h][1,4,7,9,10,13]benzoxapentaazacyclohexadecine-7,24(6H)-dione]: 0.328 nmol/L and 0.678 nmol/L. Regarding `CN1CCCNC(=O)COc2ccc(F)cc2C(=O)N2CCCC[C@H]2c2cc3nc(N4CC(N)C4)cc1n3n2` [Example 57, (19aS)-14-(3-aminoazetidin-1-yl)-2-fluoro-12-methyl-9,10,11,12,20,21,22,23-octahydro-6H, 19aH,25H-19,16-(metheno)pyrido[2,1-m]pyrimido[6,1-i][1,4,8,10,11,14]benzoxapentaazacycloheptadecine-7,25(8H)-dione], the EC50 with RSV ATCC VR-1540 (A2) turned out to be 2.11 nmol/L; in series [2] it was 12.6 nmol/L.
